Columns and labels:
[1] = target: T1, recombinant sEH-P domain (N-terminal domain of sEH) (Homo sapiens, UniProt P34913); experiment: FDP-based phosphatase assay, isolated sEH-P domain; format: biochemical; settings: for inhibitory potency toward sEH-P (SAR statement in words): FDP substrate, recombinant sEH-P domain
T1 sequence (P34913 1-222): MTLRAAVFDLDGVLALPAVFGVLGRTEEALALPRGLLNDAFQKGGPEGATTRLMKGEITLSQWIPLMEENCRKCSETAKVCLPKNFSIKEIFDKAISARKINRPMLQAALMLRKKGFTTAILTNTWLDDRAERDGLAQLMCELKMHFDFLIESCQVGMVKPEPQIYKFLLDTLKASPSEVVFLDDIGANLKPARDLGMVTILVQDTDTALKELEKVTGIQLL

[2] = target: T2, N-terminal domain of sEH (sEH-P) (Homo sapiens, UniProt P34913); experiment: Differential scanning fluorimetry; format: binding; settings: inhibitor 50 μM
T2 sequence (P34913 2-224): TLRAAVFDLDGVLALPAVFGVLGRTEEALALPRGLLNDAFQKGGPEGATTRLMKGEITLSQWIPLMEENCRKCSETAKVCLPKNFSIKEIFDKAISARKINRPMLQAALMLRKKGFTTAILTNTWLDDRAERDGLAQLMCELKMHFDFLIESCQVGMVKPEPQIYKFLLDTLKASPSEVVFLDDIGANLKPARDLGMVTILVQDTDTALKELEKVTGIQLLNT

[3] = target: T3, isolated N-terminal domain of sEH (sEH-P) (Homo sapiens, UniProt P34913); experiment: DiFMUP-based phosphatase assay, isolated N-terminal domain; settings: substrate
T3 sequence (P34913 1-222): T1 sequence (P34913 1-222)

[4] = target: T4, full-length human sEH (Homo sapiens, UniProt P34913); experiment: DiFMUP-based phosphatase assay, full-length sEH; settings: substrate
T4 sequence (P34913 1-555): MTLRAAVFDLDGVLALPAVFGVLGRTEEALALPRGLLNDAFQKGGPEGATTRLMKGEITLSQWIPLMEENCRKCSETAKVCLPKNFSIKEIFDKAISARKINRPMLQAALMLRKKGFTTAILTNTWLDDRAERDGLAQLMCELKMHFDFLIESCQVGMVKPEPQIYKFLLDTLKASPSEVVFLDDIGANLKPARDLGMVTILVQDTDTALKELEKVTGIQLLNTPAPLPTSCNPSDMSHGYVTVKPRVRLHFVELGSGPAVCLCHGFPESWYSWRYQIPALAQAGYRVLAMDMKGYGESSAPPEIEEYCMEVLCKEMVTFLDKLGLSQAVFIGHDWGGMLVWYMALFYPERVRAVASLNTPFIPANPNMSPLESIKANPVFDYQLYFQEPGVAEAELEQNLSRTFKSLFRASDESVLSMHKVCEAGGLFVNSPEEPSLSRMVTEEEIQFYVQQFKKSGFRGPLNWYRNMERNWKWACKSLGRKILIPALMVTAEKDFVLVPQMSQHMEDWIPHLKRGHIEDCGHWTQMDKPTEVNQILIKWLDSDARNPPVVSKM

[5] = target: T5, C-terminal domain of sEH (sEH-H) (Homo sapiens, UniProt P34913); experiment: Differential scanning fluorimetry; format: binding; settings: inhibitor 50 μM
T5 sequence (P34913 235-555 limits assumed): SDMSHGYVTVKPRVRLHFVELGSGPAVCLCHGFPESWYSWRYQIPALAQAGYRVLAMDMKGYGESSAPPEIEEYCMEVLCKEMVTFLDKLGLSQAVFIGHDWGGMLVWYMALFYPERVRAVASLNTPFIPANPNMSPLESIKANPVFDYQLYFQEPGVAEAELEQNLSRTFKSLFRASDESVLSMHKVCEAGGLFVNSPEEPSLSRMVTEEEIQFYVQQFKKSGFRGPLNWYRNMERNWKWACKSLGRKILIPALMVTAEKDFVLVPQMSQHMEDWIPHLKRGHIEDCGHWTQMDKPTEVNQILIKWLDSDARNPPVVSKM

| Compound | inhibitory potency toward sEH-P (SAR statement in words) [1] | also measured |
| --- | --- | --- |
| C#Cc1cccc(-c2oc(CCCC(=O)O)nc2-c2ccc(Cl)c(Cl)c2)c1 [28j, 4-(4-(3,4-Dichlorophenyl)-5-(3-ethynylphenyl)oxazol-2-yl)butanoic Acid] | slight preference | – |
| O=C(O)CCCc1nc(-c2ccc(Cl)c(Cl)c2)c(-c2cccnc2)o1 [28b, 4-(4-(3,4-Dichlorophenyl)-5-(pyridin-3-yl)oxazol-2-yl)butanoic Acid] | not favored | – |
| N#Cc1ccc(-c2nc(CCC(=O)O)oc2-c2ccccc2)cc1 [20g, 3-(4-(4-Cyanophenyl)-5-phenyloxazol-2-yl)propanoic Acid] | loss of activity | – |
| O=C(O)CCCc1nc(-c2ccc(Cl)c(Cl)c2)c(Br)o1 [compound 26, 4-(5-Bromo-4-(3,4-dichlorophenyl)oxazol-2-yl)butanoic Acid] | partially restored | – |
| O=C(O)CCc1nc(-c2ccccc2F)c(-c2ccccc2)o1 [20a, 3-(4-(2-Fluorophenyl)-5-phenyloxazol-2-yl)propanoic Acid] | poorly tolerated | – |
| O=C(O)CCc1nc(-c2cc(Cl)cc(Cl)c2)c(-c2ccccc2)o1 [20m, 3-(4-(3,5-Dichlorophenyl)-5-phenyloxazol-2-yl)propanoic Acid] | did not lead to potency improvement | – |
| O=C(O)CCc1nc(-c2ccc(Cl)cc2Cl)c(-c2ccccc2)o1 [20l, 3-(4-(2,4-Dichlorophenyl)-5-phenyloxazol-2-yl)propanoic Acid] | did not lead to potency improvement | – |
| O=C(O)c1ccccc1-c1nc(-c2ccc(Cl)c(Cl)c2)c(-c2ccccc2)o1 [22c, 2-(4-(3,4-Dichlorophenyl)-5-phenyloxazol-2-yl)benzoic Acid] | did not retain this high potency | – |
| N#Cc1cccc(-c2oc(CCCC(=O)O)nc2-c2ccc(Cl)c(Cl)c2)c1 [28g, 4-(5-(3-Cyanophenyl)-4-(3,4-dichlorophenyl)oxazol-2-yl)butanoic Acid] | slight preference | – |
| O=C(O)c1ccc(-c2nc(-c3ccc(Cl)c(Cl)c3)c(-c3ccccc3)o2)cc1 [22e, 4-(4-(3,4-Dichlorophenyl)-5-phenyloxazol-2-yl)benzoic Acid] | did not retain this high potency | – |
| O=C(O)CCCc1nc(-c2ccc(Cl)c(Cl)c2)co1 [compound 25, 4-(4-(3,4-Dichlorophenyl)oxazol-2-yl)butanoic Acid] | potency dropped dramatically | – |
| NC(=O)CCc1nc(-c2ccccc2)c(-c2ccccc2)o1 [compound 12, 3-(4,5-Diphenyloxazol-2-yl)propanamide] | complete loss of activity | – |
| COc1ccc(-c2nc(CCC(=O)O)oc2-c2ccccc2)cc1 [20i, 3-(4-(4-Methoxyphenyl)-5-phenyloxazol-2-yl)propanoic Acid] | decreased the activity | – |
| O=C(O)/C=C/c1nc(-c2ccc(Cl)c(Cl)c2)c(-c2ccccc2)o1 [22a, 3-(4-(3,4-Dichlorophenyl)-5-phenyloxazol-2-yl)acrylic Acid] | – | loss of potency ([1]; rigidization of the ethyl linker by a double bond): 2 fold |
| O=C(O)CCc1nc(-c2cccc(F)c2)c(-c2ccccc2)o1 [20d, 3-(4-(3-Fluorophenyl)-5-phenyloxazol-2-yl)propanoic Acid] | retained similar potency as 5 | – |
| O=C(O)CCCc1nc(-c2ccc(Cl)c(Cl)c2)c(-c2cccc(F)c2)o1 [28e, 4-(4-(3,4-Dichlorophenyl)-5-(3-fluorophenyl)oxazol-2-yl)butanoic Acid] | slight preference | – |
| O=C(O)CCCc1nc(-c2ccc(Cl)c(Cl)c2)c(-c2ccncc2)o1 [28a, 4-(4-(3,4-Dichlorophenyl)-5-(pyridin-4-yl)oxazol-2-yl)butanoic Acid] | not favored | – |
| O=C(O)CCc1nc(-c2ccccc2Cl)c(-c2ccccc2)o1 [20b, 3-(4-(2-Chlorophenyl)-5-phenyloxazol-2-yl)propanoic Acid] | poorly tolerated | – |
| CC(=O)N[C@@H](CSC/C=C(\C)CC/C=C(\C)CCC=C(C)C)C(=O)O [compound 2, N-acetyl-S-farnesyl-L-cysteine] | – | stabilization of the N-terminal domain in DSF [2]: able to stabilize |
| Cc1cc(=O)oc2c(F)c(OP(=O)(O)O)c(F)cc12 [DiFMUP, reference compound] | – | Km [3]: 220 µM; Km [4]: 628 µM |
| O=C(Nc1ccc(I)cc1)NC1CCCCC1 [CIU, N-cyclohexyl-N′-(4-iodophenyl)urea, reference compound] | – | stabilization of the N-terminal domain in DSF [2]: no stabilizing effect; stabilization of the C-terminal domain in DSF [5]: significantly increased |
| O=C(O)CCc1nc(-c2ccc(Cl)c(Cl)c2)c(-c2ccccc2)o1 [20k, 3-(4-(3,4-Dichlorophenyl)-5-phenyloxazol-2-yl)propanoic Acid] | – | increase in sEH-P inhibition ([1]; second chlorine at meta position, compared with 20h): more than 10 fold |
| O=C(O)CCc1nc(-c2ccc(F)cc2)c(-c2ccccc2)o1 [20e, 3-(4-(4-Fluorophenyl)-5-phenyloxazol-2-yl)propanoic Acid] | only slightly diminished the potency | – |
| O=C(O)CCc1nc(-c2ccc(C(F)(F)F)cc2)c(-c2ccccc2)o1 [20f, 3-(5-Phenyl-4-(4-(trifluoromethyl)phenyl)oxazol-2-yl)propanoic Acid] | loss of activity | – |
| O=C(O)CSc1nc(-c2ccccc2)c(-c2ccccc2)o1 [compound 9, 2-((4,5-Diphenyloxazol-2-yl)thio)acetic Acid] | slightly diminished the potency | – |
| O=C(O)CCc1nc(-c2ccc(Cl)cc2)c(-c2ccccc2)o1 [20h, 3-(4-(4-Chlorophenyl)-5-phenyloxazol-2-yl)propanoic Acid] | slightly enhanced inhibitory potency | – |
| N#Cc1cccc(-c2nc(CCC(=O)O)oc2-c2ccccc2)c1 [20c, 3-(4-(3-Cyanophenyl)-5-phenyloxazol-2-yl)propanoic Acid] | retained similar potency as 5 | – |

Source: publication PMC7262789 (Journal of medicinal chemistry, 2019)
